Assays:
Parameters in all cases: species or system Severe acute respiratory syndrome-related coronavirus
[1] = Inhibition of SARS-CoV Main protease assessed as inhibition constant
[2] = Inhibition of SARS-CoV Main protease
[3] = Inhibition of His-tagged SARS-CoV 3CLpro using Abz-SVTLQSG-Tyr(NO2)R as substrate by fluorometric assay

Work on `Cc1cc(C(=O)N[C@@H](C)C(=O)N[C@H](C(=O)N[C@@H](CC(C)C)C(=O)N[C@H](/C=C/C(=O)OCc2ccccc2)C[C@@H]2CCNC2=O)C(C)(C)C)no1` yielded a Ki [1] of 3300 nM.

In the case of `CC(C)(C)c1ccc(N(C(=O)c2cnc[nH]2)[C@@H](C(=O)NC2CCCCC2)c2cccnc2)cc1`, the IC50 [2] is reported as 1600 nM.

For `CC(=O)N[C@H](CN[C@H](C(=O)N[C@@H](CC(C)C)C(=O)N[C@@H](C[C@@H]1CCNC1=O)C(=O)Cn1[nH]c(=O)c2c([N+](=O)[O-])cccc2c1=O)[C@@H](C)OCc1ccccc1)C(C)C`, the IC50 [3] was 600 nM.
